Results on 8 molecules are retold here after ChEMBL document CHEMBL3352528, “Ejection of structural zinc leads to inhibition of γ-butyrobetaine hydroxylase” (Bioorg Med Chem Lett, 2014).

Assay [1] concerns the target T1, Gamma-butyrobetaine dioxygenase (Homo sapiens) (UniProt O75936).
T1 sequence (whole entry): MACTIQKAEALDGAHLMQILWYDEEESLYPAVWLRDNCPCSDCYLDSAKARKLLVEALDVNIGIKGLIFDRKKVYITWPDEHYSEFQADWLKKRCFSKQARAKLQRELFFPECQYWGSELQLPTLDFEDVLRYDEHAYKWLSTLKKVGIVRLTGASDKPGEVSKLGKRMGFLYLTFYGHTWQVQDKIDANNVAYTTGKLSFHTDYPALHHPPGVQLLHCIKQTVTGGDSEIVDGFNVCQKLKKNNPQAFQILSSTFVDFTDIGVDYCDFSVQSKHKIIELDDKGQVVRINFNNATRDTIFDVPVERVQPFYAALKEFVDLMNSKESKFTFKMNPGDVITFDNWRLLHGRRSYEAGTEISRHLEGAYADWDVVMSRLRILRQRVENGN
Nature of the assay: Binding affinity to human BBOX assessed as quenching of intrinsic tryptophan fluorescence at 50 to 200 uM in absence of Fe(II).

In assay [2] the target is T2, Gamma-butyrobetaine dioxygenase (Homo sapiens, UniProt O75936).
T2 sequence (O75936 whole entry): T1 sequence (whole entry)
Nature of the assay: Inhibition of human BBOX pre-incubated for 1 min using TBS-protected fluorescein probe and Fe (II) (Fe(NH4)2(SO4)2 salt by fluoride release assay.

The target of assay [3] is T2, Gamma-butyrobetaine dioxygenase. Nature of the assay: Inhibition of human BBOX pre-incubated for 10 mins using TBS-protected fluorescein probe and Fe (II) (Fe(NH4)2(SO4)2 salt by fluoride release assay.
The target is the same in assay [4]. Nature of the assay: Inhibition of human BBOX pre-incubated for 20 mins using TBS-protected fluorescein probe and Fe (II) (Fe(NH4)2(SO4)2 salt by fluoride release assay.
The target is the same in assay [5]. Nature of the assay: Inhibition of human BBOX pre-incubated for 25 mins using TBS-protected fluorescein probe and Fe (II) (Fe(NH4)2(SO4)2 salt by fluoride release assay.
The target is the same in assay [6]. Nature of the assay: Binding affinity to human BBOX by tryptophan fluorescence quenching binding assay.
Assay [7] shares this target. Nature of the assay: Inhibition of human BBOX pre-incubated for 15 mins using TBS-protected fluorescein probe and Fe (II) (Fe(NH4)2(SO4)2 salt by fluoride release assay.
For assay [8] the target is unchanged. Nature of the assay: Binding affinity to human BBOX in presence of Fe(II) by tryptophan fluorescence quenching binding assay.
The target in assay [9] is T1, Gamma-butyrobetaine dioxygenase (Homo sapiens). Nature of the assay: Induction of Zn(II) from human BBOX assessed as zinc release by fluorescence based assay.

Active and inactive are the calls of the source. No cut-off for these calls is given here.

With `O[Se]c1ccccc1`, in assay [1], the result was Active. For the same molecule, the IC50 in assay [2] is 54 µM; in [3], 35 µM; in assay [4] it was 19 µM; in assay [5], 17 µM; in assay [7], 26 µM. Further, the Kd in [6] and in assay [8] was more than 200 µM each time.

Take `Cl[Se]c1ccccc1`: in assay [1], the result was Active. Also, the IC50 was 5.1 µM in [2]; 4 µM in assay [3]; 2.9 µM in assay [4]; 2.2 µM in assay [5]; 3.2 µM in [7]. For the same molecule, the Kd in assay [6] amounted to 9.4 µM; in assay [8], 7.5 µM.

`c1ccc([Se][Se]c2ccccc2)cc1`: the outcome in assay [1] was Active. In addition, the IC50 was 55 µM in assay [2]; 47 µM in assay [3]; 42 µM in assay [4]; 39 µM in assay [5]; 49 µM in assay [7]. The Kd in assay [6] and in assay [8] was more than 200 µM each time.

Regarding `O=C(O)CNC(=O)c1nc(Cl)c2ccccc2c1O`, the result in assay [1] and in assay [9] was inactive. Besides, the IC50 is 36 µM in assay [2], 33 µM in assay [3] and 32 µM in assay [4]. Besides, the Kd in assay [6] amounted to 122 µM; in assay [8] it was 13 µM.

As to `O=[Se](O)c1ccccc1`, in assay [1], the outcome was Active. Also, the IC50 in assay [2] was 35 µM; in assay [3], 11 µM; in assay [4], 4.7 µM; in assay [5], 2.6 µM; in assay [7] it was 6.3 µM. Also, the Kd in assay [6] was determined as 7.6 µM; in assay [8], 12 µM.

With `Br[Se]c1ccccc1`, the outcome in assay [1] was Active. In addition, the IC50 stood at 7.1 µM in [2]; 3.4 µM in [3]; 3 µM in [4]; 2.3 µM in [5]; 3.4 µM in assay [7]. Further, the values for the Kd in assay [6] and in [8] were 13 µM and 11 µM, respectively.

Consider `O=c1c2ccccc2[se]n1-c1ccccc1` [EBSELEN], for which the result in [1] was Active. Further, the IC50 in assay [2] was determined as 0.69 µM; in assay [3], 0.71 µM; in assay [4] it was 0.83 µM; in assay [5] it was 0.72 µM; in assay [7], 0.76 µM. The figures for the Kd in [6] and in [8] were 3.6 µM and 4.6 µM, respectively.

For the molecule `CN(C)C(=S)SSC(=S)N(C)C` [THIRAM], the outcome in assay [1] was Active. Besides, the IC50 worked out at 56 µM in assay [2]; 34 µM in [3]; 7.9 µM in assay [4]; 5.8 µM in assay [5]; 14 µM in assay [7]. For the same molecule, the results for the Kd in assay [6] and in assay [8] were 59 µM and 35 µM, respectively.
